Reference: patent publication US12168664B2, “Triazolopyrimidines, their preparation and use” (THE TRUSTEES OF COLUMBIA UNIVERSITY IN THE CITY OF NEW YORK, priority 2018, dated 2024)

How the values were obtained:
human RBP4 = human RBP4 (Homo sapiens (Human), UniProt P02753); assay: SPA binding assay for RBP4 (scintillation proximity, 3H-retinol displacement); settings: 10 nM 3H-retinol, 50 nM biotinylated RBP4
Protocol: Scintillation Proximity RBP4 Binding Assay
Untagged human RBP4 purified from the urine of tubular proteinuria patients was purchased from Fitzgerald Industries International. It was biotinylated using the EZ-Link Sulfo-NHS-LC-Biotinylation kit from Pierce following the manufacturer's recommendations. […] Nonspecific binding was determined in the presence of 20 μM of unlabeled retinol. The reaction mix was assembled in the dark under dim red light. The plates were sealed with clear tape (TopSeal-A: 96-well microplate, PerkinElmer), wrapped in the aluminum foil, and allowed to equilibrate 6 hours at room temperature followed by overnight incubation at +4° C. Radiocounts were measured using a TopCount NXT counter (Packard Instrument Company).
The compounds listed below were tested in two in vitro assays, RBP4 binding (SPA) and retinol-dependent RBP4-TTR interaction (HTRF) (Table 1).

CYP2C19 = CYP2C19 (Homo sapiens (Human), UniProt P33261); assay: CYP inhibition, fluorescent, CYP2C19; assay type: in vitro ADME
CYP2C19, sequence (P33261 whole entry, species assumed): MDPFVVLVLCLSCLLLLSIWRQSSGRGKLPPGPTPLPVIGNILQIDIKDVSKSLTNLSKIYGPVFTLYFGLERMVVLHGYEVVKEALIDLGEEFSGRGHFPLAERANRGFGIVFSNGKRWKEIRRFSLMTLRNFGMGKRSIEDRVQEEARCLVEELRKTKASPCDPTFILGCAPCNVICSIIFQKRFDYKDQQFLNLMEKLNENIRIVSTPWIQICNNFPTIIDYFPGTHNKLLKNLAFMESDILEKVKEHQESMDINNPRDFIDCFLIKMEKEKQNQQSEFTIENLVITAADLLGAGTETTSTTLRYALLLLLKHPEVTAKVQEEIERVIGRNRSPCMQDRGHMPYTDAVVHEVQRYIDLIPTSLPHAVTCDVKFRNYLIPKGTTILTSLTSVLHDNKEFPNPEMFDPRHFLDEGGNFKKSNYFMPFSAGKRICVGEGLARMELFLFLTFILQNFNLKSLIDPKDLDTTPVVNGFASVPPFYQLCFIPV
Protocol: (§1) The compounds listed below were tested in various metabolic stability and CYP inhibition assays.

serum RBP4 = serum RBP4 (Mus musculus (Mouse), UniProt Q00724); assay: Serum RBP4 reduction in Balb/c mice after a single oral administration; assay type: in vivo
Protocol: Pharmacodynamic Studies of 7a and 7p in Balb/c Mice Following a Single Oral Administration
Animal protocols were approved by the Institutional Animal Care and Use Committee of Columbia University and complied with guidelines set forth by The Association for Research in Vision and Ophthalmology. Compounds were prepared as a suspension in 0.9% NaCl, 2% Tween 80 for oral administration. Compounds were administered to Balb/c mice in a volume of 100 μL through oral gavage. The doses used were 15 mg/kg, 25 mg/kg and 35 mg/kg for 7a while two doses, 25 mg/kg and 35 mg/kg, were tested for DENG-31(FFB-0000082). Blood samples were collected at pre-dose and 1 hr, 2 hr, 4 hr, 6 hr, 8 hr, and 24 hr timepoints. Whole blood was drawn into a centrifuge tube and was let clot at room temperature for 30 min followed by centrifugation at 2,000×g for 15 minutes at +4° C. to collect serum. Serum RBP4 was measured using the RBP4 (mouse/rat) dual ELISA kit (AdipoGen) following the manufacturer's instructions.
In order to attain this objective, the effect of oral compound administration was studied in mice. Three doses of compound 7a and two doses of 7p were tested in Balb/c mice assay for reduction of serum RBP4.

CYP3A4 = CYP3A4 (Homo sapiens (Human), UniProt P08684); assay: CYP inhibition, fluorescent, CYP3A4; assay type: in vitro ADME
CYP3A4, sequence (P08684 whole entry, species assumed): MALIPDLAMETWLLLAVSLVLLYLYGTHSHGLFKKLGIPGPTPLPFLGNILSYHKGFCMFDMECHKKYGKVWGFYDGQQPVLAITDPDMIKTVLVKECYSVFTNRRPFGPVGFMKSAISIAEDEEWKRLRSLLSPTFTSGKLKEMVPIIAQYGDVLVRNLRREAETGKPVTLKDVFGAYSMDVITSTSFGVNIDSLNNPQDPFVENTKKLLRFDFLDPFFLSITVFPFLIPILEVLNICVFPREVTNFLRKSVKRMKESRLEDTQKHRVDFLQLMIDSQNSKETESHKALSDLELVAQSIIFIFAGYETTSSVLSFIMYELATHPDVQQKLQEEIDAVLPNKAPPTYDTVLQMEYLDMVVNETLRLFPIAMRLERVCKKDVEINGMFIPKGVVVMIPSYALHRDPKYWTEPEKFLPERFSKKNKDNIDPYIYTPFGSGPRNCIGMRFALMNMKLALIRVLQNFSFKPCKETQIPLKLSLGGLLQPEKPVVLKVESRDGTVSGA
Protocol: as §1

CYP2C9 = CYP2C9 (Homo sapiens (Human), UniProt P11712); assay: CYP inhibition, fluorescent, CYP2C9; assay type: in vitro ADME
CYP2C9, sequence (P11712 whole entry, species assumed): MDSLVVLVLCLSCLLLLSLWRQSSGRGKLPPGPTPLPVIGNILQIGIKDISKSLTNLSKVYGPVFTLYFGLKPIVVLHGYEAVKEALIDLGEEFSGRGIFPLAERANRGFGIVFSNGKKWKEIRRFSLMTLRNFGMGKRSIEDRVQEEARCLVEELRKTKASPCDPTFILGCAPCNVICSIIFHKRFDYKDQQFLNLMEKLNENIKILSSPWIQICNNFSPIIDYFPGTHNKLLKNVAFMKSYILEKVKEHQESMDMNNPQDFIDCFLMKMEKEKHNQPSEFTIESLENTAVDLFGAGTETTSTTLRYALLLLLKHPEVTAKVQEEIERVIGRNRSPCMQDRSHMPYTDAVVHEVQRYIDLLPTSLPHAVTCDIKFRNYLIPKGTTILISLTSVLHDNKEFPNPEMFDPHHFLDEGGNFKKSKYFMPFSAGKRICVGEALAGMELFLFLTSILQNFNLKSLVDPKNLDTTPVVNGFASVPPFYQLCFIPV
Protocol: as §1

IC50 (human RBP4): 23 nM
IC50 (CYP2C19): > 20 µM
maximum serum RBP4 reduction (serum RBP4; single 15 mg/kg PO, at 4 hr): 83%
maximum serum RBP4 reduction (serum RBP4; single 25 mg/kg PO, at 6 hr timepoint): 86%
maximum serum RBP4 reduction (serum RBP4; single 35 mg/kg PO, at 8 hr timepoint): 89%
IC50 (CYP3A4): > 100 µM
IC50 (CYP2C9): > 100 µM
SMILES: O=C(c1nc2ncccn2n1)N1C[C@H]2C[C@@H](c3ccccc3C(F)(F)F)C[C@H]2C1 [Compound 7a]
